Experiment: xn = mol fraction of the nth substance listed
Conditions: 101 kPa

In the case of `O` + CCCC[N+]1(C)CCCC1.N#C[S-], the viscosity (298.15 K, x1 = 1) was 0.89 mPa·s, the viscosity (308.15 K, x1 = 1) was 0.74 mPa·s and the viscosity (318.15 K, x1 = 1) was 0.63 mPa·s. It also gave a viscosity (328.15 K, x1 = 1) of 0.56 mPa·s, a viscosity (338.15 K, x1 = 1) of 0.5 mPa·s and a viscosity (348.15 K, x1 = 1) of 0.43 mPa·s.
`O` + CCCC[n+]1ccn(C)c1.N#C[S-] showed a viscosity (308.15 K, x1 = 1) of 0.74 mPa·s, a viscosity (318.15 K, x1 = 1) of 0.63 mPa·s and a viscosity (328.15 K, x1 = 1) of 0.56 mPa·s. For the same compound, the viscosity (348.15 K, x1 = 1) was 0.46 mPa·s.
Work on `CCCC[N+]1(C)CCCCC1.N#C[S-]` + O yielded a viscosity (318.15 K, x2 = 0) of 265 mPa·s, a viscosity (318.15 K, x2 = 0.2774) of 94.9 mPa·s and a viscosity (318.15 K, x2 = 0.5111) of 33 mPa·s. For the same compound, the viscosity (318.15 K, x2 = 0.6302) was 19.13 mPa·s, the viscosity (318.15 K, x2 = 0.7172) was 12.13 mPa·s and the viscosity (318.15 K, x2 = 0.8248) was 6.02 mPa·s. For the same compound, the viscosity (318.15 K, x2 = 0.9351) was 1.97 mPa·s, the viscosity (328.15 K, x2 = 0) was 152 mPa·s and the viscosity (328.15 K, x2 = 0.5111) was 22.33 mPa·s. For the same compound, the viscosity (328.15 K, x2 = 0.7172) was 8.79 mPa·s, the viscosity (328.15 K, x2 = 0.8248) was 4.47 mPa·s and the viscosity (328.15 K, x2 = 0.9351) was 1.57 mPa·s. The viscosity (338.15 K, x2 = 0) was 93.5 mPa·s, the viscosity (338.15 K, x2 = 0.3741) was 25.6 mPa·s and the viscosity (338.15 K, x2 = 0.5111) was 15.96 mPa·s. It also gave a viscosity (338.15 K, x2 = 0.6302) of 9.94 mPa·s, a viscosity (338.15 K, x2 = 0.7172) of 6.6 mPa·s and a viscosity (338.15 K, x2 = 0.8248) of 3.41 mPa·s. It also gave a viscosity (338.15 K, x2 = 0.9351) of 1.28 mPa·s, a viscosity (348.15 K, x2 = 0) of 60.5 mPa·s and a viscosity (348.15 K, x2 = 0.2774) of 27.83 mPa·s. For the same compound, the viscosity (348.15 K, x2 = 0.3741) was 18.51 mPa·s, the viscosity (348.15 K, x2 = 0.6302) was 7.6 mPa·s and the viscosity (348.15 K, x2 = 0.7172) was 5.08 mPa·s. The viscosity (348.15 K, x2 = 0.8248) was 2.71 mPa·s and the viscosity (348.15 K, x2 = 0.9351) was 1.07 mPa·s.
Compound `O` + CCCC[N+]1(C)CCCCC1.N#C[S-] has a viscosity (328.15 K, x1 = 1) of 0.56 mPa·s, a viscosity (338.15 K, x1 = 1) of 0.5 mPa·s and a viscosity (348.15 K, x1 = 1) of 0.43 mPa·s.
`CCCC[N+]1(C)CCCC1.N#C[S-]` + O gave a viscosity (298.15 K, x2 = 0) of 109 mPa·s, a viscosity (298.15 K, x2 = 0.0853) of 92 mPa·s and a viscosity (298.15 K, x2 = 0.3555) of 49.3 mPa·s. The viscosity (298.15 K, x2 = 0.6634) was 17.6 mPa·s, the viscosity (298.15 K, x2 = 0.9657) was 1.74 mPa·s and the viscosity (308.15 K, x2 = 0) was 70.4 mPa·s. It also gave a viscosity (308.15 K, x2 = 0.0853) of 59.4 mPa·s, a viscosity (308.15 K, x2 = 0.2203) of 45.2 mPa·s and a viscosity (308.15 K, x2 = 0.3555) of 33.2 mPa·s. For the same compound, the viscosity (308.15 K, x2 = 0.783) was 7.27 mPa·s, the viscosity (318.15 K, x2 = 0) was 47.8 mPa·s and the viscosity (318.15 K, x2 = 0.0853) was 40.3 mPa·s. It also gave a viscosity (318.15 K, x2 = 0.3555) of 23.5 mPa·s, a viscosity (318.15 K, x2 = 0.5252) of 14.38 mPa·s and a viscosity (318.15 K, x2 = 0.6634) of 9.15 mPa·s. For the same compound, the viscosity (318.15 K, x2 = 0.783) was 5.46 mPa·s, the viscosity (328.15 K, x2 = 0) was 34.1 mPa·s and the viscosity (328.15 K, x2 = 0.2203) was 23 mPa·s. It also gave a viscosity (328.15 K, x2 = 0.3555) of 17.3 mPa·s, a viscosity (328.15 K, x2 = 0.5252) of 10.87 mPa·s and a viscosity (328.15 K, x2 = 0.6634) of 7.02 mPa·s. For the same compound, the viscosity (328.15 K, x2 = 0.8623) was 2.54 mPa·s, the viscosity (328.15 K, x2 = 0.9657) was 0.92 mPa·s and the viscosity (338.15 K, x2 = 0.0853) was 21.5 mPa·s. It also gave a viscosity (338.15 K, x2 = 0.3555) of 13.08 mPa·s, a viscosity (338.15 K, x2 = 0.5252) of 8.49 mPa·s and a viscosity (338.15 K, x2 = 0.6634) of 5.53 mPa·s. The viscosity (338.15 K, x2 = 0.8623) was 2.02 mPa·s, the viscosity (348.15 K, x2 = 0) was 19.3 mPa·s and the viscosity (348.15 K, x2 = 0.0853) was 16.5 mPa·s. For the same compound, the viscosity (348.15 K, x2 = 0.3555) was 10.21 mPa·s, the viscosity (348.15 K, x2 = 0.5252) was 6.81 mPa·s and the viscosity (348.15 K, x2 = 0.783) was 2.65 mPa·s. The viscosity (348.15 K, x2 = 0.8623) was 1.67 mPa·s.

Source: a compilation of properties of binary mixtures (doi:10.1007/s10953-012-9875-7)
